Assay results taken from ChEMBL document CHEMBL1133794, “3-p-Toluoyl-2-[4'-(3-diethylaminopropoxy)-phenyl]-benzofuran and 2-[4'-(3-diethylaminopropoxy)-phenyl]-benzofuran do not act as surfactants or micelles when inhibiting the aggregation of beta-amyloid peptide” (Bioorg Med Chem Lett, 2001).

How the values were obtained:
[1] = Critical micelle concentration determined by micellar/surfactant based mechanism; assay type: functional
[2] = Inhibitory concentration required to inhibit aggregation of 50 uM beta-amyloid 1-40 peptide by 50% over 24 hr r incubation, 37 degree C; assay type: functional

Structure (SMILES): CCN(CC)CCCOc1ccc(-c2oc3ccccc3c2C(=O)c2ccc(C)cc2)cc1
- Critical micelle concentration [1]: 225 µM
- IC50 [2]: 20 µM

Structure (SMILES): CCN(CC)CCCOc1ccc(-c2cc3ccccc3o2)cc1
- Critical micelle concentration [1]: 220 µM
- IC50 [2]: 78 µM
